Data reported in BigSolDB 2.1.

O=C1NC(=O)C2C3C=CC(C3)C12 (stereo not drawn)
solubility (mole fraction)
Details	278.15 K	283.15 K	288.15 K	293.15 K	298.15 K	303.15 K	308.15 K	313.15 K	318.15 K	323.15 K
in 1,4-dioxane	–	–	0.0363	0.0402	0.0495	0.0576	0.0649	0.0738	0.0843	0.0962
in 2-ethoxyethanol	0.019	0.0224	0.0255	0.0295	0.0336	0.0384	0.0442	0.0481	0.0551	0.0627
in DMF	0.0637	0.0717	0.081	0.0915	0.107	0.116	0.129	0.145	0.159	0.177
in acetone	0.0128	0.0146	0.0171	0.0196	0.0225	0.0255	0.029	0.0328	0.0369	0.0414
in ethanol	0.00441	0.00512	0.00642	0.00789	0.00949	0.0115	0.0138	0.0165	0.0195	0.0233
in ethyl acetate	0.00821	0.00971	0.0112	0.0128	0.0146	0.0171	0.0195	0.0223	0.0255	0.029
in isopropyl acetate	0.0046	0.00565	0.00672	0.00781	0.00903	0.0105	0.0124	0.0143	0.0164	0.019
in methanol	0.00626	0.00766	0.00855	0.0104	0.0127	0.0157	0.0182	0.0219	0.026	0.0308
in methyl acetate	0.0113	0.0135	0.0159	0.0187	0.0223	0.0259	0.0303	0.0352	0.041	0.0474
in n-butyl acetate	0.00431	0.00523	0.00617	0.00718	0.00869	0.0103	0.0117	0.0135	0.0156	0.0178
in n-propyl acetate	0.00537	0.00631	0.00782	0.00907	0.0106	0.0124	0.0145	0.0168	0.0193	0.0221
